Oligonucleotides are written 5' to 3', each unit as a sugar letter and its base; * is a phosphorothioate linkage, no mark a phosphodiester; rarer units and linkages stand in square brackets, end groups in braces. Plain capitals give the bases only. e = 2'-O-(2-methoxyethyl) (MOE); l = locked nucleic acid (LNA); [5mC] = 5-methylcytosine; d = 2'-deoxy (DNA)
Tests used:
[1] = test system: Grn mRNA; test: In vivo Grn mRNA in brain regions of C57/BL6 mice after ASO injection into lateral ventricle; design: species or system mouse; settings: 300 μg into right lateral ventricle, day 28, cortex, hippocampus, striatum (FIG. 16)
Procedure: ASO-mediated upregulation of progranulin in different brain regions in vivo was determined. ASO CO-3544 (300 μg) in PBS was injected into right lateral ventricle of 8-week-old C57/BL6 mice. A steric nontargeting control ASO (CO-1929), and vehicle (PBS) control were used as controls. Mice were sacrificed at day 28 post-injection. Tissue samples (cortex, hippocampus and striatum) were collected and processed for total RNA and protein extraction as described above. Mouse Grn mRNA quantification was performed using real time qPCR assay.

[2] = test system: mGrn mRNA; test: In vivo mGrn mRNA in heterozygous Grn^tm1.1Far mice after ICV injection; design: species or system mouse
Procedure: (§1) Grn^tm1.1Far (B6.129S4(FVB)-Grn^tm1.1Far/Mmjax; The Jackson Laboratory, Cat. No. MMRRC Strain #036771-JAX) heterozygous mice were used to assess the efficacy of CO-3544 and CO-10691 to upregulate mGrn in vivo. These mice have deletion of exon 2-13 of the mouse Grn gene. CO-3544 and CO-10691 target mouse Grn paRNA.
(§2) Mice were injected ICV with 5 μL of artificial CSF (aCSF; vehicle control), 300 μg of ASO CO-3544, or 200 μg of ASO CO-10691, each in aCSF, at a rate of 1 μL/min. For ASO CO-3544, mice were sacrificed 4 weeks post-dose for analyses. For CO-10691, mice were sacrificed 2 and 4 weeks post-dose for analyses. Mouse brain sections were processed, and Pgrn protein and Grn mRNA quantified, as described above.

[3] = test system: mGrn mRNA; test: mGrn mRNA qPCR in Neuro2a cells transfected with ASOs; type: cell-based, mouse; settings: Neuro2a
[4] = test system: Pgrn protein; test: In vivo Pgrn protein in heterozygous Grn^tm1.1Far mice after ICV injection (ELISA); design: species or system mouse; settings: ICV 200 μg, 2 and 4 weeks (FIG. 24)
Procedure: as §1, §2

| Substance | Grn mRNA levels increase across different brain regions [1] | increase in Grn mRNA expression as compared to aCSF ([2]; heterozygous Grn^tm1.1Far mice, ICV 300 μg, 4 weeks (FIG. 22A)) | mGrn mRNA upregulation ([3]; dose-dependent, normalized to sNTC3 (FIG. 13)) | mGRN mRNA FC ([3]; Table 14, 100 nM, 48 hours, normalized to sNTC3) [FC] | 40 nM FC (mGrn mRNA) ([3]; Table 15, 40 nM, transfection) [FC] | 80 nM FC (mGrn mRNA) ([3]; Table 15, 80 nM, transfection) [FC] | 160 nM FC (mGrn mRNA) ([3]; Table 15, 160 nM, transfection) [FC] | mGrn mRNA expression as compared to aCSF ([2]; Grn^tm1.1Far mice, ICV 200 μg, 2 and 4 weeks, cortex, hippocampus, striatum, cerebellum (FIGS. 23A-D)) | murine Pgrn protein expression as compared to aCSF [4] |
| --- | --- | --- | --- | --- | --- | --- | --- | --- | --- |
| CO-3544: ASO targeting the mouse Grn promoter (− strand); targets mouse Grn paRNA (antisense eG*eT*eT*e[5mC]*eT*e[5mC]*e[5mC]*e[5mC]*eT*eA*eG*e[5mC]*eT*eG*eT*eG*eT*eA*eG*eT) | greater than 1.5 fold | up to 1.5 fold | up to 1.5 fold | 1.1 | 1.2 | 1.3 | 1.4 | – | – |
| CO-10691: ASO that targets mouse Grn paRNA (antisense eG*eT*lA*eG*lA*dG*dA*d[5mC]*dA*d[5mC]*d[5mC]*dT*d[5mC]*d[5mC]*d[5mC]*l[5mC]*eG*l[5mC]*eA*e[5mC]) | – | – | – | – | – | – | – | upregulated | upregulated |

— patent publication US20250243488A1, “METHODS OF MODULATING PROGRANULIN EXPRESSION USING ANTISENSE OLIGONUCLEOTIDES TARGETING REGULATORY RNAS” (Camp4 Therapeutics Corporation, priority 2022, published 2025)
